Data on nine compounds can be found in PubChem BioAssay (NCI).

Common to all, as to experiment: NCI anticancer screen, dose series, 48 h
The subject of experiment [1] is ACHN renal.
The test system of experiment [2] is CAKI-1 renal.
Experiment [3] relates to HCC-2998 colon.
Experiment [4] deals with HCT-15 colon.
Experiment [5] has as its system NCI-H23 lung.
The subject of experiment [6] is NCI-H522 lung.
Experiment [7] deals with OVCAR-3 ovarian.
Experiment [8] concerns OVCAR-5 ovarian.
Experiment [9] relates to SNB-19 CNS.
Experiment [10] relates to SW-620 colon.
The subject of experiment [11] is TK-10 renal.
For experiment [12], the system named is U251 CNS.
Experiment [13] relates to UACC-62 melanoma.
Experiment [14] deals with DU-145 prostate.
The subject of experiment [15] is MDA-MB-231 breast.
Experiment [16] has as its system NCI/ADR-RES ovarian.
Experiment [17] has as its system PC-3 prostate.
Experiment [18] deals with T-47D breast.
For experiment [19], the system named is MDA-N.

The structures appear in SMILES notation.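 Grown in 96-well plates, cells were treated for 48 hours with each compound at five concentrations. Insufficient inhibition: endpoint recorded as highest concentration tested. TGI: concentration producing complete growth inhibition.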

For `CC(C)(C)C1CCC2c3c([nH]c4ncccc34)C3C(=O)N(c4ccccc4)C(=O)C3C2C1` (stereo not given), the TGI in experiment [1], in [2], in experiment [3], in experiment [4], in experiment [5] and in experiment [6] was above 100 µM each time. Also, the TGI in experiment [7], in [8], in [9], in experiment [10], in [11] and in experiment [12] was above 100 µM throughout. The compound further returned a TGI in experiment [13] above 100 µM.

For the compound `CCOC(=O)Nc1sc2c(c1C#N)CC(C)CC2` (stereo not given), the TGI in experiment [1] was 88.5 µM; in experiment [2] it was above 100 µM; in experiment [14], above 100 µM; in [3] it was 11.2 µM; in experiment [4], above 100 µM; in [15], 46.7 µM. Moreover, the TGI in [5] is above 100 µM; in experiment [6] it was 16.9 µM; in [16], 7.86 µM; in experiment [7], above 100 µM; in experiment [8], 99.1 µM; in [17], 41.8 µM. For the same compound, the TGI in [9] is 27 µM; in [10] it was above 100 µM; in experiment [18], above 100 µM; in experiment [11], 98 µM; in experiment [12] it was above 100 µM; in [13], 96.4 µM.

For the compound `[N-]=[N+]=NC1(c2ccccc2)C(=O)C(Cl)=C(c2ccccc2)N(c2ccccc2)C1=O` (stereo not given), the TGI in experiment [1], in experiment [2], in experiment [3], in experiment [4], in experiment [5] and in experiment [6] was above 100 µM throughout. Besides, the TGI in experiment [7], in experiment [8], in experiment [9], in [10], in experiment [11] and in experiment [12] was above 100 µM in each case. In experiment [13], this compound gave a TGI above 100 µM.

For `Cc1ccc(/C=C/C(=N/NC(=O)N/N=C(/C=C/c2ccc(C)cc2)C(C)C)C(C)C)cc1`, the TGI in experiment [1], in experiment [2], in [14], in experiment [3], in experiment [4] and in [15] was above 10 µM throughout. Also, the TGI in experiment [19], in [5], in [6], in experiment [16], in [7] and in [8] was above 10 µM each time. Besides, the TGI in experiment [17], in experiment [9], in [10], in [11] and in experiment [12] was above 10 µM each time.

Consider `NC(=O)CN1CC(C2=C(O)CN(CC(N)=O)C2=O)=CC1=O`, for which the TGI in [1], in [2], in experiment [14], in experiment [3], in [4] and in experiment [15] was above 100 µM throughout. In addition, the TGI in experiment [5], in experiment [6], in experiment [16], in experiment [7], in [8] and in experiment [17] was above 100 µM throughout. Besides, the TGI in [9], in [10], in experiment [18], in experiment [11], in experiment [12] and in experiment [13] was above 100 µM in each case.

As for `c1ccc2c(c1)nn1c3ccc4nonc4c3[n-][n+]21`, the TGI in experiment [1], in experiment [2], in experiment [14], in experiment [3], in experiment [4] and in experiment [15] was above 100 µM throughout. For the same compound, the TGI in [19], in experiment [5], in experiment [6], in experiment [16], in [7] and in [8] was above 100 µM throughout. The TGI in [17], in experiment [9], in experiment [10], in experiment [12] and in [13] was above 100 µM each time.

Turning to `C[C@@H]1[C@H](O)CC2=C(CC[C@@H](O)C2(C)C)[C@@]1(CO)CCc1ccoc1`, the TGI in experiment [1], in [2], in experiment [3], in [4], in experiment [15] and in experiment [19] was above 50 µM throughout. Further, the TGI in experiment [5], in [16], in experiment [7], in experiment [8], in experiment [17] and in [9] was above 50 µM in each case. The TGI in experiment [10], in experiment [11], in [12] and in experiment [13] was above 50 µM each time.

With `CCOC(=O)C(C)Sc1nnc(COc2ccc(Cl)cc2)n1-c1ccccc1` (stereo not given), the TGI was 31.6 µM in experiment [1]; 31.7 µM in experiment [2]; 49 µM in experiment [3]; 27.8 µM in [4]; 42.7 µM in [5]; 5.16 µM in experiment [6]. Further, the TGI in experiment [7] was 33.5 µM; in [8] it was 94.8 µM; in experiment [9] it was 40.1 µM; in [10], 27.2 µM; in experiment [11], 69.9 µM; in experiment [12], 35.1 µM. The same compound showed a TGI in [13] of 31.8 µM.

As for `O=C(c1cccc2ccccc12)C1S(=O)(=O)OCCOS1(=O)=O`, the TGI in [1], in [2], in experiment [14], in experiment [3], in experiment [4] and in experiment [15] was above 100 µM each time. For the same compound, the TGI in [19], in experiment [5], in [16], in [7], in experiment [8] and in experiment [17] was above 100 µM each time. The TGI in experiment [9], in [11] and in [12] was above 100 µM each time.
